In patent US11535629B2, “Dioxoloisoquinolinone derivatives and use thereof” (HANMI PHARMACEUTICAL CO., LTD., priority 2020, dated 2022):
Like-named read-outs stand apart in the source and are kept apart here.

Test system: KARPAS-422 cells
Assay: Cell growth inhibition test (CTG method)
Assay type: cell-based
Conditions: KARPAS-422 (EZH2^Y641N mutant), culturing for 7 days, read-out: Cell growth inhibitory activity (GI50, nM) KARPAS-422 (EZH2^Y641N mutant)
Method: The cultured cell strain was prepared at 1.8×10^4 cells/400 μL and placed in a 48-well plate.

[1] = Homo sapiens, KARPAS-422, 168 h

GI50 [nM] | GI50 [1] [nM] | Compound
100 to 1000 | – | Cc1cc(C)c(CN2CCc3c(Cl)c4c(c(C)c3C2=O)OC(C)(C23CCC(N(C)C)(CC2)CC3)O4)c(=O)[nH]1 (single isomer, unassigned) [Compound 3, 9-chloro-6-((4,6-dimethyl-2-oxo-1,2-dihydropyridin-3-yl)methyl)-2-(4-(dimethylamino)bicyclo[2.2.2]octan-1-yl)-2,4-dimethyl-7,8-dihydro-[1,3]dioxolo[4,5-g]isoquinolin-5(6H)-one]
> 1000 | – | Cc1cc(C)c(CN2CCc3c(Br)c4c(c(C)c3C2=O)OC(C)(C23CCC(N(C)C)(CC2)CC3)O4)c(=O)[nH]1 (single isomer, unassigned) [Compound 12, 9-bromo-6-((4,6-dimethyl-2-oxo-1,2-dihydropyridin-3-yl)methyl)-2-(4-(dimethylamino)bicyclo[2.2.2]octan-1-yl)-2,4-dimethyl-7,8-dihydro-[1,3]dioxolo[4,5-g]isoquinolin-5(6H)-one]
– | 10 to 100 | Cc1cc(C)c(CN2CCc3c(Cl)c4c(c(C)c3C2=O)OC(C)(C23CCC(N(C)C)(CC2)CC3)O4)c(=O)[nH]1 (stereo not shown) [Compound 1, 9-chloro-6-((4,6-dimethyl-2-oxo-1,2-dihydropyridin-3-yl)methyl)-2-(4-(dimethylamino)bicyclo[2.2.2]octan-1-yl)-2,4-dimethyl-7,8-dihydro-[1,3]dioxolo[4,5-g]isoquinolin-5(6H)-one]
– | 4.1 to 55 | Cc1cc(C)c(CN2CCc3c(Br)c4c(c(C)c3C2=O)OC(C)(C23CCC(N(C)C)(CC2)CC3)O4)c(=O)[nH]1 (stereo not shown) [Compound 10, 9-bromo-6-((4,6-dimethyl-2-oxo-1,2-dihydropyridin-3-yl)methyl)-2-(4-(dimethylamino)bicyclo[2.2.2]octan-1-yl)-2,4-dimethyl-7,8-dihydro-[1,3]dioxolo[4,5-g]isoquinolin-5(6H)-one]
– | 30 | Cc1cc(C)c(CN2CCc3c(c(C)c4c(c3C3CC3)OC(C)(C35CCC(N(C)C)(CC3)CC5)O4)C2=O)c(=O)[nH]1 (stereo not shown) [Compound 13, 9-cyclopropyl-6-((4,6-dimethyl-2-oxo-1,2-dihydropyridin-3-yl)methyl)-2-(4-(dimethylamino)bicyclo[2.2.2]octan-1-yl)-2,4-dimethyl-7,8-dihydro-[1,3]dioxolo[4,5-g]isoquinolin-5(6H)-one]
– | 36 | Cc1cc(C)c(CN2CCc3c(c(C)c4c(c3C3CCCC3)OC(C)(C35CCC(N(C)C)(CC3)CC5)O4)C2=O)c(=O)[nH]1 (stereo not shown) [Compound 16, 9-cyclopentyl-6-((4,6-dimethyl-2-oxo-1,2-dihydropyridin-3-yl)methyl)-2-(4-(dimethylamino)bicyclo[2.2.2]octan-1-yl)-2,4-dimethyl-7,8-dihydro-[1,3]dioxolo[4,5-g]isoquinolin-5(6H)-one]
– | 27 | CCc1c2c(c(C)c3c1OC(C)(C14CCC(N(C)C)(CC1)CC4)O3)C(=O)N(Cc1c(C)cc(C)[nH]c1=O)CC2 (stereo not shown) [Compound 18, 6-((4,6-dimethyl-2-oxo-1,2-dihydropyridin-3-yl)methyl)-2-(4-(dimethylamino)bicyclo[2.2.2]octan-1-yl)-9-ethyl-2,4-dimethyl-7,8-dihydro-[1,3]dioxolo[4,5-g]isoquinolin-5(6H)-one]
– | 47 | Cc1cc(C)c(CN2CCc3c(c(C)c4c(c3C(C)C)OC(C)(C35CCC(N(C)C)(CC3)CC5)O4)C2=O)c(=O)[nH]1 (stereo not shown) [Compound 20, 6-((4,6-dimethyl-2-oxo-1,2-dihydropyridin-3-yl)methyl)-2-(4-(dimethylamino)bicyclo[2.2.2]octan-1-yl)-9-isopropyl-2,4-dimethyl-7,8-dihydro-[1,3]dioxolo[4,5-g]isoquinolin-5(6H)-one]
– | 18 | C#Cc1c2c(c(C)c3c1OC(C)(C14CCC(N(C)C)(CC1)CC4)O3)C(=O)N(Cc1c(C)cc(C)[nH]c1=O)CC2 (stereo not shown) [Compound 21, 6-((4,6-dimethyl-2-oxo-1,2-dihydropyridin-3-yl)methyl)-2-(4-(dimethylamino)bicyclo[2.2.2]octan-1-yl)-9-ethynyl-2,4-dimethyl-7,8-dihydro-[1,3]dioxolo[4,5-g]isoquinolin-5(6H)-one]
12 to 19 | – | Cc1cc(C)c(CN2CCc3c(C)c4c(c(C)c3C2=O)OC(C)(C23CCC(N(C)C)(CC2)CC3)O4)c(=O)[nH]1 (stereo not shown) [Compound 22, 6-((4,6-dimethyl-2-oxo-1,2-dihydropyridin-3-yl)methyl)-2-(4-(dimethylamino)bicyclo[2.2.2]octan-1-yl)-2,4,9-trimethyl-7,8-dihydro-[1,3]dioxolo[4,5-g]isoquinolin-5(6H)-one]
100 to 1000 | – | Cc1cc(C)c(CN2CCc3c(C)c4c(c(C)c3C2=O)OC(C)(C23CCC(N(C)C)(CC2)CC3)O4)c(=O)[nH]1 (stereo not shown) [Compound 24, 6-((4,6-dimethyl-2-oxo-1,2-dihydropyridin-3-yl)methyl)-2-(4-(dimethylamino)bicyclo[2.2.2]octan-1-yl)-2,4,9-trimethyl-7,8-dihydro-[1,3]dioxolo[4,5-g]isoquinolin-5(6H)-one]
– | 14 | COc1cc(C)[nH]c(=O)c1CN1CCc2c(C)c3c(c(C)c2C1=O)OC(C)(C12CCC(N(C)C)(CC1)CC2)O3 (stereo not shown) [Compound 25, 2-(4-(dimethylamino)bicyclo[2.2.2]octan-1-yl)-6-((4-methoxy-6-methyl-2-oxo-1,2-dihydropyridin-3-yl)methyl)-2,4,9-trimethyl-7,8-dihydro[1,3]dioxolo[4,5-g]isoquinolin-5(6H)-one]
– | 9.8 | Cc1cc(C)c(CN2CCc3c(C)c4c(c(Cl)c3C2=O)OC(C)(C23CCC(N(C)C)(CC2)CC3)O4)c(=O)[nH]1 (stereo not shown) [Compound 27, 4-chloro-6-((4,6-dimethyl-2-oxo-1,2-dihydropyridin-3-yl)methyl)-2-(4-(dimethylamino)bicyclo[2.2.2]octan-1-yl)-2,9-dimethyl-7,8-dihydro-[1,3]dioxolo[4,5-g]isoquinolin-5(6H)-one]

Continued, molecule first:

Compound | GI50 [nM] | GI50 [1] [nM]
COc1cc(C)[nH]c(=O)c1CN1CCc2c(Cl)c3c(c(C)c2C1=O)OC(C)(C12CCC(N(C)C)(CC1)CC2)O3 (single isomer, unassigned) [Compound 6, 9-chloro-2-(4-(dimethylamino)bicyclo[2.2.2]octan-1-yl)-6-((4-methoxy-6-methyl-2-oxo-1,2-dihydropyridin-3-yl)methyl)-2,4-dimethyl-7,8-dihydro[1,3]dioxolo[4,5-g]isoquinolin-5(6H)-one] | > 1000 | –
CSc1cc(C)[nH]c(=O)c1CN1CCc2c(Cl)c3c(c(C)c2C1=O)OC(C)(C12CCC(N(C)C)(CC1)CC2)O3 (single isomer, unassigned) [Compound 9, 9-chloro-2-(4-(dimethylamino)bicyclo[2.2.2]octan-1-yl)-2,4-dimethyl-6-((6-methyl-4-(methylthio)-2-oxo-1,2-dihydropyridin-3-yl)methyl)-7,8-dihydro[1,3]dioxolo[4,5-g]isoquinolin-5(6H)-one] | 100 to 1000 | –
Cc1cc(C)c(CN2CCc3cc4c(c(C)c3C2=O)OC(C)(C23CCC(N(C)C)(CC2)CC3)O4)c(=O)[nH]1 (stereo not shown) [Compound 14, 6-((4,6-dimethyl-2-oxo-1,2-dihydropyridin-3-yl)methyl)-2-(4-(dimethylamino)bicyclo[2.2.2]octan-1-yl)-2,4-dimethyl-7,8-dihydro-[1,3]dioxolo[4,5-g]isoquinolin-5(6H)-one] | – | 45
CCCc1cc(C)[nH]c(=O)c1CN1CCc2c(C)c3c(c(C)c2C1=O)OC(C)(C12CCC(N(C)C)(CC1)CC2)O3 (stereo not shown) [Compound 26, 2-(4-(dimethylamino)bicyclo[2.2.2]octan-1-yl)-2,4,9-trimethyl-6-((6-methyl-2-oxo-4-propyl-1,2-dihydropyridin-3-yl)methyl)-7,8-dihydro[1,3]dioxolo[4,5-g]isoquinolin-5(6H)-one] | – | 46
Cc1cc(C)c(CN2CCc3c(Cl)c4c(c(Cl)c3C2=O)OC(C)(C23CCC(N(C)C)(CC2)CC3)O4)c(=O)[nH]1 (stereo not shown) [Compound 28, 4,9-dichloro-6-((4,6-dimethyl-2-oxo-1,2-dihydropyridin-3-yl)methyl)-2-(4-(dimethylamino)bicyclo[2.2.2]octan-1-yl)-2-methyl-7,8-dihydro-[1,3]dioxolo[4,5-g]isoquinolin-5(6H)-one] | – | 13
Cc1cc(C)c(CN2CCc3c(Cl)c4c(c(C)c3C2=O)OC(C23CCC(N(C)C)(CC2)CC3)O4)c(=O)[nH]1 (stereo not shown) [Compound 29, 9-chloro-6-((4,6-dimethyl-2-oxo-1,2-dihydropyridin-3-yl)methyl)-2-(4-(dimethylamino)bicyclo[2.2.2]octan-1-yl)-4-methyl-7,8-dihydro-[1,3]dioxolo[4,5-g]isoquinolin-5(6H)-one] | – | 36
Cc1cc(C)c(CN2CCc3c(c(C)c4c(c3-c3ccco3)O[C@@](C)([C@H]3CC[C@H](N(C)C)CC3)O4)C2=O)c(=O)[nH]1 [Compound 31, (S)-6-((4,6-dimethyl-2-oxo-1,2-dihydropyridin-3-yl)methyl)-2-(trans-4-(dimethylamino)cyclohexyl)-9-(furan-2-yl)-2,4-dimethyl-7,8-dihydro-[1,3]dioxolo[4,5-g]isoquinolin-5(6H)-one] | – | > 1000
Cc1cc(C)c(CN2CCc3c(c(C)c4c(c3-c3cccs3)O[C@@](C)([C@H]3CC[C@H](N(C)C)CC3)O4)C2=O)c(=O)[nH]1 [Compound 33, (S)-6-((4,6-dimethyl-2-oxo-1,2-dihydropyridin-3-yl)methyl)-2-(trans-4-(dimethylamino)cyclohexyl)-2,4-dimethyl-9-(thiophen-2-yl)-7,8-dihydro-[1,3]dioxolo[4,5-g]isoquinolin-5(6H)-one] | – | > 1000
Cc1cc(C)c(CN2CCc3c(c(C)c4c(c3-c3ccncc3)O[C@@](C)([C@H]3CC[C@H](N(C)C)CC3)O4)C2=O)c(=O)[nH]1 [Compound 35, (S)-6-((4,6-dimethyl-2-oxo-1,2-dihydropyridin-3-yl)methyl)-2-(trans-4-(dimethylamino)cyclohexyl)-2,4-dimethyl-9-(pyridin-4-yl)-7,8-dihydro-[1,3]dioxolo[4,5-g]isoquinolin-5(6H)-one] | – | > 1000
